Experimental data: article doi:10.1101/757047v1 (biorxiv, 2019)

Assays:
[1] = molecular target: T1, full length GAK protein N-terminally fused with NanoLuc luciferase (Homo sapiens, UniProt O14976); test: nanoBRET cellular target engagement; type: cell-based
T1 sequence (O14976 2-1311): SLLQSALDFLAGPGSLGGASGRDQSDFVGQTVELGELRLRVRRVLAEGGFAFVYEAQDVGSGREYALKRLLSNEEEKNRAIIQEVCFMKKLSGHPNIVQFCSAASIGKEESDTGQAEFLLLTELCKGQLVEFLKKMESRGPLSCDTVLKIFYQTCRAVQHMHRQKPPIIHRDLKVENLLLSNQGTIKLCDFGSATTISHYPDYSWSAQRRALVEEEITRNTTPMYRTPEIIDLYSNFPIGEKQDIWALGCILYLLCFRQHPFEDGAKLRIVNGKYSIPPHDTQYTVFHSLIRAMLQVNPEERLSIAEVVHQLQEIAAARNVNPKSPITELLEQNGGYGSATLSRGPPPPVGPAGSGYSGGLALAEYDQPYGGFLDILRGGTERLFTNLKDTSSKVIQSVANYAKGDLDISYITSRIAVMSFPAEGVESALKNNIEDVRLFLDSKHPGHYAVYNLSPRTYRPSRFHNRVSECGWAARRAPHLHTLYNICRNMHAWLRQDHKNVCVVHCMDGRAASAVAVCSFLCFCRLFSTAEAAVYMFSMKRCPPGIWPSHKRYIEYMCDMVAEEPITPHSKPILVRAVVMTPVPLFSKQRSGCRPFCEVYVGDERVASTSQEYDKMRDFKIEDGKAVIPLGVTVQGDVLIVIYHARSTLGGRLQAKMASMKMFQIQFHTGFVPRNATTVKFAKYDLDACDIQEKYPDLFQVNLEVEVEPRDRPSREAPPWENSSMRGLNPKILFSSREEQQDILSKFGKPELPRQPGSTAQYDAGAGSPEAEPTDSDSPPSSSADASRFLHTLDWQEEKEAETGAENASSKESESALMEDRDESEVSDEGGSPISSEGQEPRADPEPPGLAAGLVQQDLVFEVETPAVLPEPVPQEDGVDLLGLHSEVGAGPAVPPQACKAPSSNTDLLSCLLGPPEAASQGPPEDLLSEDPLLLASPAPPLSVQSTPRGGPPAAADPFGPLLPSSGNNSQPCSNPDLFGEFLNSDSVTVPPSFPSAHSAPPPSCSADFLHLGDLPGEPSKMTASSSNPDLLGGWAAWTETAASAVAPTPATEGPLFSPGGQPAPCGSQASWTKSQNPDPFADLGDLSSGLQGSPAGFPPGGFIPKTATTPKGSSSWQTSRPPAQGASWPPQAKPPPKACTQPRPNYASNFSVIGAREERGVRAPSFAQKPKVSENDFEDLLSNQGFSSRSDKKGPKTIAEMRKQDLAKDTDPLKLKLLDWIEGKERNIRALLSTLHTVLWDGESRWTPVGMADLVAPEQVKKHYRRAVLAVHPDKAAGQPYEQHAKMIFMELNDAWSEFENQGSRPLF

SLK [2] = molecular target: T2, SLK (Homo sapiens, UniProt Q9H2G2); test: TR-FRET binding displacement assay
T2 sequence (Q9H2G2 34-292): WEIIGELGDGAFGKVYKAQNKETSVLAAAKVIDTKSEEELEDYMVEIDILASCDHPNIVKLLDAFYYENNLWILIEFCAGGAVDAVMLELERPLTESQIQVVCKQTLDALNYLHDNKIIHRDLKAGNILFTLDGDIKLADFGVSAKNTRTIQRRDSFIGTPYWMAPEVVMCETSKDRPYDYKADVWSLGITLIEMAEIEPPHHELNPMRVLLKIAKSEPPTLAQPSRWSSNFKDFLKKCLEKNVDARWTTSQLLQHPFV

STK10 [3] = molecular target: T3, STK10 (Homo sapiens, UniProt O94804); test: TR-FRET binding displacement assay
T3 sequence (O94804 36-294 limits assumed): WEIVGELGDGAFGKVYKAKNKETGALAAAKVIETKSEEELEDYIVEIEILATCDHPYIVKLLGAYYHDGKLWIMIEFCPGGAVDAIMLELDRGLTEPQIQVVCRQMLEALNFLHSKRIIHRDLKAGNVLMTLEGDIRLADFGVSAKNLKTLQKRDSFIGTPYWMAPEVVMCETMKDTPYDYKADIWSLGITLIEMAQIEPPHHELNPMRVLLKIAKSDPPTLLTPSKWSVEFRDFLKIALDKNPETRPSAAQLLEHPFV

GAK [4] = molecular target: T4, GAK (Homo sapiens, UniProt O14976); test: TR-FRET binding displacement assay
T4 sequence (O14976 12-347 limits assumed): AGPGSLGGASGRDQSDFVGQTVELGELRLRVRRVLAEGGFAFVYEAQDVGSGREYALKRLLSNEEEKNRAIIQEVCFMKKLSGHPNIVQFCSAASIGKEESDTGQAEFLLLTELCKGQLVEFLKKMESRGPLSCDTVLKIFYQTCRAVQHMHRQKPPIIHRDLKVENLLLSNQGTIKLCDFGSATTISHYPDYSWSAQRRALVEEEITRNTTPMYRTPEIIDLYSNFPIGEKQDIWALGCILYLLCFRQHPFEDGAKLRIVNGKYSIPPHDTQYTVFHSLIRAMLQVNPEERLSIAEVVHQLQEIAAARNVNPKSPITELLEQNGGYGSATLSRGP

GAK [5] = molecular target: T4, GAK; test: biochemical
SLK [6] = molecular target: T2, SLK; test: biochemical
STK10 [7] = molecular target: T3, STK10; test: biochemical
[8] = molecular target: T1, full length GAK protein N-terminally fused with NanoLuc luciferase; test: cell-based; parameters: species or system HEK293T
[9] = molecular target: T1, full length GAK protein N-terminally fused with NanoLuc luciferase; test: cell-based; parameters: species or system HEK293T; remark: listed apart in the source
GAK [10] = molecular target: T4, GAK; test: biochemical; remark: listed apart in the source
SLK [11] = molecular target: T2, SLK; test: biochemical; remark: listed apart in the source
STK10 [12] = molecular target: T3, STK10; test: biochemical; remark: listed apart in the source
[13] = ATP site tracer displacement, 16-point dose response

Row | Ki (GAK [5]) [µM] | Ki (SLK [6]) [µM] | Ki (STK10 [7]) [µM] | IC50 [8] [µM] | Structure (SMILES) | further results
1 | 0.07 | 8.5 | 5.5 | 2 | C#Cc1cccc(Nc2ncnc3ccc(F)cc23)c1 [compound 56, 56] | 
2 | 0.085 | 3.8 | 2.9 | > 5 | C#Cc1cccc(Nc2ncnc3cc(F)c(F)cc23)c1 [compound 57, 57] | 
3 | 0.03 | 3.9 | 2.8 | > 5 | C#Cc1cccc(Nc2ncnc3ccc(Cl)cc23)c1 [compound 58, 58] | 
4 | 0.022 | 1.2 | 1.2 | 4.1 | C#Cc1cccc(Nc2ncnc3cc(F)ccc23)c1 [compound 62, 62] | 
5 | 0.031 | 0.26 | 0.29 | > 5 | C#Cc1cccc(Nc2ncnc3cc(Br)ccc23)c1 [compound 64, 64] | 
6 | 0.02 | 0.18 | 0.15 | > 5 | C#Cc1cccc(Nc2ncnc3cc(I)ccc23)c1 [compound 65, 65] | 
7 | 0.17 | 7.9 | 4.7 | > 5 | C#Cc1cccc(Nc2ncnc3ccc(C#N)cc23)c1 [compound 68, 68] | 
8 | 0.0088 | 0.67 | 0.46 | 1.2 | C#Cc1cccc(Nc2ncnc3cc(OC)ccc23)c1 [compound 72, 72] | 

The remaining lines, values behind:

Row | Structure (SMILES) | Ki (GAK [5]) [µM] | Ki (SLK [6]) [µM] | Ki (STK10 [7]) [µM] | IC50 [8] [µM] | further results
9 | COc1cc(Nc2ccnc3cc(C#N)ccc23)cc(OC)c1OC [compound 21, 21] |  |  |  |  | IC50 [1]: 0.35 µM; Ki (SLK [2]): 1.1 µM; Ki (STK10 [3]): 0.13 µM; Ki (GAK [4]; [13]): 0.0027 µM
10 | COc1ccc2c(Nc3cc(OC)c(OC)c(OC)c3)ccnc2c1 [compound 22, 22] |  |  |  |  | IC50 ([1]; HEK293T cells, tracer displacement, n=[…] mean): 0.44 µM; Ki (SLK [2]): 13 µM; Ki (STK10 [3]): 1.3 µM; Ki (GAK [4]; [13]): 0.0026 µM
11 | C#Cc1cccc(Nc2ncnc3ccccc23)c1 [compound 54, 54] | 0.17 | 23 | 10 | 4.5 | 
12 | C#Cc1cccc(Nc2ncnc3ccc(C)cc23)c1 [compound 55, 55] | 0.043 | 4.3 | 2.6 | 3.6 | 
13 | C#Cc1cccc(Nc2ncnc3ccc(Br)cc23)c1 [compound 59, 59] | 0.028 | 3.4 | 2.5 | > 5 | 
14 | C#Cc1cccc(Nc2ncnc3ccc(I)cc23)c1 [compound 60, 60] | 0.044 | 4.3 | 3.7 | > 5 | 
15 | C#Cc1cccc(Nc2ncnc3ccc(C(F)(F)F)cc23)c1 [compound 61, 61] | 0.15 | 3.2 | 3.4 | > 5 | 
16 | C#Cc1cccc(Nc2ncnc3cc(C(F)(F)F)ccc23)c1 [compound 66, 66] | 0.088 | 1.2 | 1 | > 5 | 
17 | C#Cc1cccc(Nc2ncnc3ccc(OC)cc23)c1 [compound 70, 70] | 0.024 | 2.8 | 2.2 | 2.9 | 
18 | C#Cc1cccc(Nc2ncnc3cc4c(cc23)OCO4)c1 [compound 73, 73] | 0.019 | 2.7 | 1.5 | 1.7 | 
19 | C#Cc1ccc(F)c(Nc2ncnc3cc(C#N)ccc23)c1 [compound 87, 4-((5-ethynyl-2-fluorophenyl)amino)quinazoline-7-carbonitrile] |  |  |  |  | Ki (SLK [2]): 0.56 µM; Ki (STK10 [3]): 0.67 µM; Ki (GAK [4]): 1.2 µM; IC50 [9]: > 5 µM
20 | C#Cc1cccc(Nc2ncnc3cc(C#N)ccc23)c1F [compound 88, 88] |  |  |  |  | Ki (GAK [10]): 0.33 µM; Ki (SLK [11]): 1.1 µM; Ki (STK10 [12]): 0.5 µM; IC50 [9]: > 5 µM
21 | C#Cc1cc(Nc2ncnc3cc(C#N)ccc23)ccc1F [compound 89, 89] |  |  |  |  | Ki (GAK [10]): 0.55 µM; Ki (SLK [11]): 0.69 µM; Ki (STK10 [12]): 0.87 µM; IC50 [9]: > 5 µM
22 | C#Cc1cc(Nc2ncnc3cc(I)ccc23)ccc1F [compound 93, 93] |  |  |  |  | Ki (SLK [11]): 0.11 µM; Ki (STK10 [12]): 0.11 µM; IC50 [9]: > 5 µM
23 | C#Cc1cccc(Nc2ncnc3cc(OC)c(OC)cc23)c1F [compound 100, 100] |  |  |  |  | Ki (SLK [11]): 0.67 µM; Ki (STK10 [12]): 0.25 µM; IC50 [9]: 0.4 µM
